In brackets after ≈: the same amount, converted by molar mass. Activity calls are given as the source filed them. The calls are words filed in the database; no cut-off is given here.
Assays:
Escherichia coli [1] = test: Antibacterial activity against Escherichia coli MTCC 443 assessed as diameter of zone of inhibition at MIC incubated overnight by disk diffusion method; type: functional
Bacillus subtilis [2] = test: Synergistic antibacterial activity against Bacillus subtilis MTCC 736 assessed as inhibition of bacterial growth incubated overnight in presence of ciprofloxacin by serial dilution based spectrophotometer; type: functional
Escherichia coli [3] = test: Antibacterial activity against Escherichia coli MTCC 443 assessed as diameter of zone of inhibition at 500 ug/ml by agar disk diffusion method; type: functional; conditions: read-out: DIZ
Pseudomonas aeruginosa [4] = test: Synergistic antibacterial activity against Pseudomonas aeruginosa MTCC 2453 assessed as fractional inhibitory concentration index incubated overnight in presence of ciprofloxacin by microdilution checkerboard assay; type: functional
Pseudomonas aeruginosa [5] = test: Synergistic antibacterial activity against Pseudomonas aeruginosa MTCC 2453 assessed as inhibition of bacterial growth incubated overnight in presence of ciprofloxacin by serial dilution based spectrophotometer; type: functional
Bacillus subtilis [6] = test: Antibacterial activity against Bacillus subtilis MTCC 736 assessed as inhibition of bacterial growth incubated overnight by serial dilution based spectrophotometer; type: functional
Escherichia coli [7] = test: Synergistic antibacterial activity against Escherichia coli MTCC 443 assessed as fractional inhibitory concentration index incubated overnight in presence of ciprofloxacin by microdilution checkerboard assay; type: functional
Staphylococcus aureus [8] = test: Ratio of MBC for antibacterial activity against Staphylococcus aureus MTCC 902 to MIC for bactericidal activity against Staphylococcus aureus MTCC 902; type: functional
Salmonella typhi [9] = test: Antibacterial activity against Salmonella typhi assessed as diameter of zone of inhibition at MIC incubated overnight by disk diffusion method; type: functional, Salmonella enterica subsp. enterica serovar Typhi
Escherichia coli [10] = test: Antibacterial activity against Escherichia coli MTCC 443 assessed as diameter of zone of inhibition at 2 times MIC incubated overnight by disk diffusion method; type: functional
Enterococcus faecalis [11] = test: Antibacterial activity against Enterococcus faecalis MTCC 439 assessed as diameter of zone of inhibition at 500 ug/ml by agar disk diffusion method; type: functional; conditions: read-out: DIZ
Staphylococcus aureus [12] = test: Synergistic antibacterial activity against Staphylococcus aureus MTCC 902 assessed as inhibition of bacterial growth incubated overnight in presence of ciprofloxacin by serial dilution based spectrophotometer; type: functional
Bacillus subtilis [13] = test: Bactericidal activity against Bacillus subtilis MTCC 736 assessed as inhibition of bacterial growth incubated overnight; type: functional
Salmonella typhi [14] = test: Antibacterial activity against Salmonella typhi assessed as diameter of zone of inhibition at 500 ug/ml by agar disk diffusion method; type: functional, Salmonella enterica subsp. enterica serovar Typhi; conditions: Salmonella enterica, read-out: DIZ
Bacillus subtilis [15] = test: Antibacterial activity against Bacillus subtilis MTCC 736 assessed as diameter of zone of inhibition at MIC incubated overnight by disk diffusion method; type: functional
Escherichia coli [16] = test: Ratio of MBC for antibacterial activity against Escherichia coli MTCC 443 to MIC for bactericidal activity against Escherichia coli MTCC 443; type: functional
Enterococcus faecalis [17] = test: Ratio of MBC for antibacterial activity against Enterococcus faecalis MTCC 439 to MIC for bactericidal activity against Enterococcus faecalis MTCC 439; type: functional
Staphylococcus aureus [18] = test: Bacteriostatic activity against Staphylococcus aureus MTCC 902 assessed as reduction in bacterial growth at 2 times MIC measured upto 24 hrs by absorbance based assay; type: functional, organism-based
Staphylococcus aureus [19] = test: Antibacterial activity against Staphylococcus aureus MTCC 902 assessed as diameter of zone of inhibition at MIC incubated overnight by disk diffusion method; type: functional
Enterococcus faecalis [20] = test: Bactericidal activity against Enterococcus faecalis MTCC 439 assessed as inhibition of bacterial growth incubated overnight; type: functional
Pseudomonas aeruginosa [21] = test: Antibacterial activity against Pseudomonas aeruginosa MTCC 2453 assessed as diameter of zone of inhibition at MIC incubated overnight by disk diffusion method; type: functional
Staphylococcus aureus [22] = test: Antibacterial activity against Staphylococcus aureus MTCC 902 assessed as diameter of zone of inhibition at 2 times MIC incubated overnight by disk diffusion method; type: functional
Salmonella typhi [23] = test: Synergistic antibacterial activity against Salmonella typhi assessed as inhibition of bacterial growth incubated overnight in presence of ciprofloxacin by serial dilution based spectrophotometer; type: functional, Salmonella enterica subsp. enterica serovar Typhi; conditions: Salmonella enterica
Enterococcus faecalis [24] = test: Antibacterial activity against Enterococcus faecalis MTCC 439 assessed as diameter of zone of inhibition at 2 times MIC incubated overnight by disk diffusion method; type: functional
Pseudomonas aeruginosa [25] = test: Bactericidal activity against Pseudomonas aeruginosa MTCC 2453 assessed as inhibition of bacterial growth incubated overnight; type: functional
Pseudomonas aeruginosa [26] = test: Antibacterial activity against Pseudomonas aeruginosa MTCC 2453 assessed as diameter of zone of inhibition at 500 ug/ml by agar disk diffusion method; type: functional; conditions: read-out: DIZ
Enterococcus faecalis [27] = test: Synergistic antibacterial activity against Enterococcus faecalis MTCC 439 assessed as fractional inhibitory concentration index incubated overnight in presence of ciprofloxacin by microdilution checkerboard assay; type: functional
Pseudomonas aeruginosa [28] = test: Antibacterial activity against Pseudomonas aeruginosa MTCC 2453 assessed as inhibition of bacterial growth incubated overnight by serial dilution based spectrophotometer; type: functional
Staphylococcus aureus [29] = test: Synergistic antibacterial activity against Staphylococcus aureus MTCC 902 assessed as fractional inhibitory concentration index incubated overnight in presence of ciprofloxacin by microdilution checkerboard assay; type: functional
Staphylococcus aureus [30] = test: Antibacterial activity against Staphylococcus aureus MTCC 902 assessed as diameter of zone of inhibition at 500 ug/ml by agar disk diffusion method; type: functional; conditions: read-out: DIZ
Enterococcus faecalis [31] = test: Synergistic antibacterial activity against Enterococcus faecalis MTCC 439 assessed as inhibition of bacterial growth incubated overnight in presence of ciprofloxacin by serial dilution based spectrophotometer; type: functional
Staphylococcus aureus [32] = test: Antibacterial activity against Staphylococcus aureus MTCC 902 assessed as inhibition of bacterial growth incubated overnight by serial dilution based spectrophotometer; type: functional
Escherichia coli [33] = test: Antibacterial activity against Escherichia coli MTCC 443 assessed as inhibition of bacterial growth incubated overnight by serial dilution based spectrophotometer; type: functional
Escherichia coli [34] = test: Synergistic antibacterial activity against Escherichia coli MTCC 443 assessed as inhibition of bacterial growth incubated overnight in presence of ciprofloxacin by serial dilution based spectrophotometer; type: functional
Enterococcus faecalis [35] = test: Antibacterial activity against Enterococcus faecalis MTCC 439 assessed as diameter of zone of inhibition at MIC incubated overnight by disk diffusion method; type: functional
Salmonella typhi [36] = test: Synergistic antibacterial activity against Salmonella typhi assessed as fractional inhibitory concentration index incubated overnight in presence of ciprofloxacin by microdilution checkerboard assay; type: functional, Salmonella enterica subsp. enterica serovar Typhi
Salmonella typhi [37] = test: Antibacterial activity against Salmonella typhi assessed as diameter of zone of inhibition at 2 times MIC incubated overnight by disk diffusion method; type: functional, Salmonella enterica subsp. enterica serovar Typhi
Bacillus subtilis [38] = test: Antibacterial activity against Bacillus subtilis MTCC 736 assessed as diameter of zone of inhibition at 2 times MIC incubated overnight by disk diffusion method; type: functional
Escherichia coli [39] = test: Bactericidal activity against Escherichia coli MTCC 443 assessed as inhibition of bacterial growth incubated overnight; type: functional
Bacillus subtilis [40] = test: Ratio of MBC for antibacterial activity against Bacillus subtilis MTCC 736 to MIC for bactericidal activity against Bacillus subtilis MTCC 736; type: functional
Enterococcus faecalis [41] = test: Antibacterial activity against Enterococcus faecalis MTCC 439 assessed as diameter of zone of inhibition at 0.5 times MIC incubated overnight by disk diffusion method; type: functional
Escherichia coli [42] = test: Antibacterial activity against Escherichia coli MTCC 443 assessed as diameter of zone of inhibition at 0.5 times MIC incubated overnight by disk diffusion method; type: functional
Salmonella typhi [43] = test: Ratio of MBC for antibacterial activity against Salmonella typhi to MIC for bactericidal activity against Salmonella typhi; type: functional, Salmonella enterica subsp. enterica serovar Typhi

Clc1ccc2c(NCC/N=C/c3ccc4ccccc4n3)ccnc2c1
diameter of the inhibition zone (DIZ) (Escherichia coli [1]): 11 mm
MIC (Bacillus subtilis [2]): 32 µg/mL
zone of inhibition at 500 µg/mL (Escherichia coli [3]): 11 mm
fractional inhibitory concentration index (FICI) (Pseudomonas aeruginosa [4]): 1.25
MIC (Pseudomonas aeruginosa [5]): 64 µg/mL
MIC (Bacillus subtilis [6]): 128 µg/mL (≈ 355 µM)
fractional inhibitory concentration index (FICI) (Escherichia coli [7]): 0.281
Ratio (Staphylococcus aureus [8]): 1
diameter of the inhibition zone (DIZ) (Salmonella typhi [9]): 10 mm
diameter of the inhibition zone (DIZ) (Escherichia coli [10]): 12 mm
zone of inhibition at 500 µg/mL (Enterococcus faecalis [11]): 10 mm
MIC (Staphylococcus aureus [12]): 256 µg/mL
MBC (Bacillus subtilis [13]): 512 µg/mL (≈ 1420 µM)
zone of inhibition at 500 µg/mL (Salmonella typhi [14]): 11 mm
diameter of the inhibition zone (DIZ) (Bacillus subtilis [15]): 6 mm
Ratio (Escherichia coli [16]): 1
Ratio (Enterococcus faecalis [17]): 2
Activity (Staphylococcus aureus [18]): Active
diameter of the inhibition zone (DIZ) (Staphylococcus aureus [19]): 8 mm
MBC (Enterococcus faecalis [20]): 512 µg/mL (≈ 1420 µM)
diameter of the inhibition zone (DIZ) (Pseudomonas aeruginosa [21]): 6 mm
diameter of the inhibition zone (DIZ) (Staphylococcus aureus [22]): 10 mm
MIC (Salmonella typhi [23]): 4 µg/mL
diameter of the inhibition zone (DIZ) (Enterococcus faecalis [24]): 7 mm
MBC (Pseudomonas aeruginosa [25]): 512 µg/mL (≈ 1420 µM)
zone of inhibition at 500 µg/mL (Pseudomonas aeruginosa [26]): 10 mm
fractional inhibitory concentration index (FICI) (Enterococcus faecalis [27]): 0.312
MIC (Pseudomonas aeruginosa [28]): 256 µg/mL (≈ 709 µM)
fractional inhibitory concentration index (FICI) (Staphylococcus aureus [29]): 1.5
zone of inhibition at 500 µg/mL (Staphylococcus aureus [30]): 8 mm
MIC (Enterococcus faecalis [31]): 16 µg/mL
MIC (Staphylococcus aureus [32]): 512 µg/mL (≈ 1420 µM)
MIC (Escherichia coli [33]): 128 µg/mL (≈ 355 µM)
MIC (Escherichia coli [34]): 4 µg/mL
diameter of the inhibition zone (DIZ) (Enterococcus faecalis [35]): 7 mm
fractional inhibitory concentration index (FICI) (Salmonella typhi [36]): 0.093
diameter of the inhibition zone (DIZ) (Salmonella typhi [37]): 12 mm
diameter of the inhibition zone (DIZ) (Bacillus subtilis [38]): 10 mm
MBC (Escherichia coli [39]): 128 µg/mL (≈ 355 µM)
Ratio (Bacillus subtilis [40]): 4
diameter of the inhibition zone (DIZ) (Enterococcus faecalis [41]): 7 mm
diameter of the inhibition zone (DIZ) (Escherichia coli [42]): 11 mm
Ratio (Salmonella typhi [43]): 1

O=[N+]([O-])c1ccccc1/C=N/CCNc1ccnc2cc(Cl)ccc12
diameter of the inhibition zone (DIZ) (Escherichia coli [1]): 7 mm
MIC (Bacillus subtilis [2]): 32 µg/mL
zone of inhibition at 500 µg/mL (Escherichia coli [3]): 11 mm
fractional inhibitory concentration index (FICI) (Pseudomonas aeruginosa [4]): 1.5
MIC (Pseudomonas aeruginosa [5]): 64 µg/mL
MIC (Bacillus subtilis [6]): 128 µg/mL (≈ 361 µM)
fractional inhibitory concentration index (FICI) (Escherichia coli [7]): 0.124
Ratio (Staphylococcus aureus [8]): 1
diameter of the inhibition zone (DIZ) (Salmonella typhi [9]): 11 mm
diameter of the inhibition zone (DIZ) (Escherichia coli [10]): 9 mm
zone of inhibition at 500 µg/mL (Enterococcus faecalis [11]): 13 mm
MIC (Staphylococcus aureus [12]): 64 µg/mL
MBC (Bacillus subtilis [13]): 128 µg/mL (≈ 361 µM)
zone of inhibition at 500 µg/mL (Salmonella typhi [14]): 12 mm
diameter of the inhibition zone (DIZ) (Bacillus subtilis [15]): 9 mm
Ratio (Escherichia coli [16]): 1
Ratio (Enterococcus faecalis [17]): 2
Activity (Staphylococcus aureus [18]): Active
diameter of the inhibition zone (DIZ) (Staphylococcus aureus [19]): 8 mm
MBC (Enterococcus faecalis [20]): 256 µg/mL (≈ 722 µM)
diameter of the inhibition zone (DIZ) (Pseudomonas aeruginosa [21]): 8 mm
diameter of the inhibition zone (DIZ) (Staphylococcus aureus [22]): 9 mm
MIC (Salmonella typhi [23]): 1 µg/mL
diameter of the inhibition zone (DIZ) (Enterococcus faecalis [24]): 12 mm
MBC (Pseudomonas aeruginosa [25]): 128 µg/mL (≈ 361 µM)
zone of inhibition at 500 µg/mL (Pseudomonas aeruginosa [26]): 11 mm
fractional inhibitory concentration index (FICI) (Enterococcus faecalis [27]): 0.265
MIC (Pseudomonas aeruginosa [28]): 128 µg/mL (≈ 361 µM)
fractional inhibitory concentration index (FICI) (Staphylococcus aureus [29]): 1.25
zone of inhibition at 500 µg/mL (Staphylococcus aureus [30]): 10 mm
MIC (Enterococcus faecalis [31]): 2 µg/mL
MIC (Staphylococcus aureus [32]): 256 µg/mL (≈ 722 µM)
MIC (Escherichia coli [33]): 128 µg/mL (≈ 361 µM)
MIC (Escherichia coli [34]): 8 µg/mL
diameter of the inhibition zone (DIZ) (Enterococcus faecalis [35]): 10 mm
fractional inhibitory concentration index (FICI) (Salmonella typhi [36]): 0.077
diameter of the inhibition zone (DIZ) (Salmonella typhi [37]): 8 mm
diameter of the inhibition zone (DIZ) (Bacillus subtilis [38]): 11 mm
MBC (Escherichia coli [39]): 128 µg/mL (≈ 361 µM)
Ratio (Bacillus subtilis [40]): 1
diameter of the inhibition zone (DIZ) (Enterococcus faecalis [41]): 9 mm
diameter of the inhibition zone (DIZ) (Escherichia coli [42]): 6 mm
Ratio (Salmonella typhi [43]): 1

From ChEMBL document CHEMBL6078713, “Synthesis and mechanistic studies of 4-aminoquinoline-Isatin molecular hybrids and Schiff's bases as promising antimicrobial agents” (Eur J Med Chem, 2025)
